Where “and” joins values, the source holds several entries; their conditions need not be identical. Equal entries are not always repeated.
Details: Crystal

[F-].[F-].[Hg+2] [mercuric difluoride]
Details | vapor or sublimation pressure
457 K | 0.00015 kPa
464 K | 0.00018 kPa
466 K | 0.00024 kPa
469 K | 0.0003 kPa
473 K | 0.00024 kPa
474 K | 0.00042 kPa
475 K | 0.00036 kPa
480 K | 0.00048 kPa
481 K | 0.00066 kPa and 0.00042 kPa
483 K | 0.00051 kPa and 0.00054 kPa
487 K | 0.0006 kPa
488 K | 0.00089 kPa
490 K | 0.00076 kPa and 0.00078 kPa
492 K | 0.00078 kPa
493 K | 0.00091 kPa
494 K | 0.00089 kPa
496 K | 0.00115 kPa and 0.00095 kPa and 0.00107 kPa
498 K | 0.00135 kPa and 0.00107 kPa
499 K | 0.00112 kPa
502 K | 0.00162 kPa and 0.00132 kPa
503 K | 0.00151 kPa
504 K | 0.00178 kPa
505 K | 0.00174 kPa
507 K | 0.00162 kPa and 0.00186 kPa
510 K | 0.00209 kPa
511 K | 0.00245 kPa
512 K | 0.00224 kPa
513 K | 0.00288 kPa and 0.00245 kPa
514 K | 0.00229 kPa
515 K | 0.00257 kPa
516 K | 0.00347 kPa
518 K | 0.00363 kPa
520 K | 0.00324 kPa
521 K | 0.00398 kPa and 0.00339 kPa
523 K | 0.00331 kPa
525 K | 0.00437 kPa and 0.00363 kPa
526 K | 0.00479 kPa
527 K | 0.00437 kPa and 0.00457 kPa
528 K | 0.00457 kPa
529 K | 0.0055 kPa
533 K | 0.00575 kPa
535 K | 0.00759 kPa and 0.00617 kPa
537 K | 0.00759 kPa
539 K | 0.00646 kPa
542 K | 0.00871 kPa
543 K | 0.01047 kPa and 0.00871 kPa
544 K | 0.01072 kPa
549 K | 0.00933 kPa
551 K | 0.01318 kPa and 0.01175 kPa
552 K | 0.01445 kPa
555 K | 0.0138 kPa
557 K | 0.0166 kPa and 0.01318 kPa
560 K | 0.01862 kPa and 0.01698 kPa
561 K | 0.01622 kPa
565 K | 0.02188 kPa
568 K | 0.02455 kPa
570 K | 0.02042 kPa
580 K | 0.02951 kPa
589 K | 0.04074 kPa

[F][Hg].[F][Hg] [mercury fluoride (Hg2F2)]
Details | vapor or sublimation pressure
496 K | 2.3e-05 kPa
503 K | 3.4e-05 kPa
508 K | 5.8e-05 kPa
509 K | 4.6e-05 kPa
515 K | 7.9e-05 kPa
516 K | 6.8e-05 kPa
520 K | 0.000102 kPa
524 K | 0.000138 kPa
526 K | 0.000138 kPa
531 K | 0.000204 kPa
533 K | 0.000229 kPa
536 K | 0.000288 kPa and 0.000214 kPa and 0.000229 kPa
539 K | 0.000275 kPa
542 K | 0.000389 kPa
543 K | 0.000324 kPa
544 K | 0.000407 kPa
545 K | 0.000437 kPa
546 K | 0.000501 kPa and 0.000363 kPa
547 K | 0.000437 kPa
548 K | 0.000501 kPa
549 K | 0.000457 kPa
552 K | 0.000589 kPa
553 K | 0.00055 kPa
554 K | 0.000871 kPa and 0.000646 kPa and 0.000575 kPa
556 K | 0.000676 kPa
557 K | 0.000794 kPa and 0.000724 kPa
559 K | 0.000871 kPa and 0.000724 kPa and 0.000851 kPa
560 K | 0.000794 kPa
562 K | 0.001 kPa and 0.000912 kPa
563 K | 0.001 kPa
564 K | 0.001288 kPa and 0.001 kPa
565 K | 0.001148 kPa and 0.001259 kPa
567 K | 0.001259 kPa
569 K | 0.00123 kPa
571 K | 0.001585 kPa
572 K | 0.001585 kPa and 0.001445 kPa
573 K | 0.002138 kPa and 0.001549 kPa and 0.001349 kPa
574 K | 0.001585 kPa
576 K | 0.002042 kPa
577 K | 0.002399 kPa
578 K | 0.00195 kPa and 0.002089 kPa and 0.001905 kPa
579 K | 0.002089 kPa
580 K | 0.002089 kPa
582 K | 0.003162 kPa
583 K | 0.002089 kPa
584 K | 0.003236 kPa and 0.002512 kPa
585 K | 0.002692 kPa and 0.002818 kPa
586 K | 0.002884 kPa
588 K | 0.003236 kPa and 0.003162 kPa
589 K | 0.00309 kPa
590 K | 0.003548 kPa
591 K | 0.004571 kPa
592 K | 0.004467 kPa
593 K | 0.003631 kPa
594 K | 0.004467 kPa
595 K | 0.004365 kPa
596 K | 0.004571 kPa and 0.004365 kPa
599 K | 0.006026 kPa and 0.004786 kPa
600 K | 0.006918 kPa and 0.00537 kPa
601 K | 0.005754 kPa
605 K | 0.007762 kPa and 0.006457 kPa and 0.006761 kPa
606 K | 0.006918 kPa [middle of 4 runs]
609 K | 0.00955 kPa
611 K | 0.008128 kPa and 0.00955 kPa and 0.007413 kPa
614 K | 0.01 kPa and 0.00871 kPa
615 K | 0.01 kPa
616 K | 0.01259 kPa and 0.01072 kPa and 0.01097 kPa
617 K | 0.01148 kPa
618 K | 0.0123 kPa
619 K | 0.01023 kPa
622 K | 0.0138 kPa and 0.0123 kPa
623 K | 0.01514 kPa
624 K | 0.01738 kPa
625 K | 0.01862 kPa
626 K | 0.0138 kPa
628 K | 0.01549 kPa
629 K | 0.0195 kPa

Source: the NIST ThermoML archive (doi:10.1021/je800231f)
